In US20090156504A1, “METHODS OF TREATING BLOOD CELL DEPLETION” (ImmuneRegen Biosciences, Inc., priority 2007, published 2009):

Assays:
[1] = test system: Blast Forming Unit—Erythroid (BFU-E) cultures; experiment: Colony forming unit assay, BFU-E (Example 6); format: cell-based; settings: human bone marrow cells, about 14 days, FIG. 1; control = zero level
Source text: (§1) As stem cells differentiate in response to growth factors, they form a colony of cells with distinct morphologies that can be visualized using a microscope. This study examined the formation of three different progenitor cell populations, erythrocytes, platelets and granulocytes/macrophages.
(§2) Bone marrow aspirates were obtained from three healthy donors between 18 and 35 years of age following appropriate guidelines and protocols. Bone marrow mononuclear cells were isolated using a Ficoll-Hypaque density gradient, separating red blood cells from the others. Cells from each donor were processed independently and used for setting up individual experiments to assess the effects, if any, of donor variability.
(§3) Cells (1×10^5) were plated in duplicate onto 35 mm tissue culture plates for each condition tested and set up as described in Rameshwar et al. 1993, Blood. 81:2, 391-398. Erythroid and granulocyte/macrophage cultures were plated using methylcellulose and megakaryocyte cultures (platelet precursors) used a collagen-based support (StemCell Technologies, Vancouver, Canada, catalogue #04973). […] CP 99,994 (Pfizer) was used as a neurokinin-1 receptor antagonist and SR 48968 (Sanofi) was used as a neurokinin-2 receptor antagonist. […]

[2] = test system: Colony Forming Unit—Erythroid (CFU-E) cultures; experiment: Colony forming unit assay, CFU-E (Example 6); format: cell-based; settings: human bone marrow cells, about 14 days, FIG. 2
Source text: as §1, §2, §3

[3] = test system: Colony Forming Unit-Megakaryocyte (CFU-Mk) cultures; experiment: Colony forming unit assay, CFU-Mk (Example 6); format: cell-based, human; settings: for effect of receptor antagonist on substance P-enhanced platelet colony formation: in the presence of substance P
Source text: as §1, §2
Cells (1×10^5) were plated in duplicate onto 35 mm tissue culture plates for each condition tested and set up as described in Rameshwar et al. 1993, Blood. 81:2, 391-398. Erythroid and granulocyte/macrophage cultures were plated using methylcellulose and megakaryocyte cultures (platelet precursors) used a collagen-based support (StemCell Technologies, Vancouver, Canada, catalogue #04973). […] CP 99,994 (Pfizer) was used as a neurokinin-1 receptor antagonist and SR 48968 (Sanofi) was used as a neurokinin-2 receptor antagonist.
Cultures were set up with limited cytokines and growth factors which would promote differentiation of one progenitor per plate.
Each compound was dissolved in endotoxin-free water to a final concentration of 0.1 mM. After reconstitution, the solutions were aliquoted into siliconized microcentrifuge tubes and exposed to nitrogen gas, eliminating oxygen in the head space of the enclosure. All aliquots were stored at −20° C. until use and used within one month of reconstitution. See, Rameshwar, et al. 1997, J. Immunol.
Cultures were incubated at 37° C. with 5% CO2 for approximately 14 days, after which colonies were manually enumerated using a microscope. […]

[4] = test system: human bone marrow-derived hematopoietic cell populations; experiment: CFC differentiation and ATP proliferation assays, overall statements on the seven cell populations (Examples 4 and 5); format: cell-based
Protocol: The compound was dissolved in 1 ml of Iscove's Modified Dulbecco's Medium (IMDM) and a serial dose response prepared in single log doses so that the final dose in culture ranged from 1 nM to 1×10^−16 M. All working dilutions were performed in IMDM.
Starting with human bone marrow aspirate, the mononuclear cell (MNC) fraction was separated from the whole bone marrow using Ficoll-Paque density gradient centrifugation. […] The cell concentration was adjusted so that the final cell concentration in culture was 10,000 cells/well.
Human bone marrow MNC was dissolved in IMDM and cultured at a concentration of 10,000 cell/well in a CAMEO™-96 Master Mix (HemoGenix, Inc., Colorado Springs, Colo.). Master Mix is a HemoGenix proprietary cell culture media comprised of a serum mix (4 parts), a methyl cellulose mix (4 parts) and a growth factor mix (1 part) with the bone marrow target cells (1 part). See, Rich and Hall 2005, Toxicol. Sci. 87(2): 427-441.
Different combinations and concentrations of growth factors are used to induce differentiation of cells into specific cell types. […]
Prior to processing all 96-well plates, the total colony counts/well were manually enumerated by microscopy. The mean, standard deviation and percent coefficient of variation was calculated for all groups, transposed and plotted. The intracellular ATP (iATP) concentration was measured after manual enumeration. The output of the luminometer is non-standardized Relative Luminescence Units (RLU). […] This allowed the RLU values to be automatically calculated into standardized ATP (μM) units. For both the RLU and ATP values derived from each well, the luminometer software calculated the mean, standard deviation and percent coefficient of variation. […]

RPKPQQFFGLM-NH2 [substance P]
BFU-E colony increase from control values [1]: ~60%
CFU-E colony formation enhancement from control values [2]: about 70%
effective concentration for platelet precursors ([3]; approximately 2-fold stimulation): 10^−8 M

COc1ccccc1CN[C@H]1CCCN[C@H]1c1ccccc1 [CP-99,994]
effect of receptor antagonist on substance P-enhanced platelet colony formation [3]: blocks the stimulatory activity of substance P

CC(C)C[C@H](NC(=O)CN(C)C(=O)[C@H](Cc1ccccc1)NC(=O)[C@H](Cc1ccccc1)NC(=O)[C@H](CCC(N)=O)NC(=O)[C@H](CCC(N)=O)NC(=O)[C@@H]1CCCN1C(=O)[C@H](CCCCN)NC(=O)[C@@H]1CCCN1C(=O)[C@@H](N)CCCNC(=N)N)C(=O)N[C@@H](CCS(C)(=O)=O)C(N)=O [Homspera®]
toxicity to T-CFC and B-CFC ([4]; Example 4, levels tested (10^−16 M to 1 nM)): do not demonstrate toxicity at the levels tested
cytotoxicity ([4]; Example 4, most of populations, 14 days, 10^−16 M to 1 nM): apparent absence of distinct cytotoxicity
toxicity in CFC assay ([4]; Example 5, three donors, seven cell populations, highest doses (1 nM)): no apparent toxicity at the highest doses

CC(=O)NC1(c2ccccc2)CCN(CC[C@H](CN(C)C(=O)c2ccccc2)c2ccc(Cl)c(Cl)c2)CC1 [SR48968]
effect of receptor antagonist on substance P-enhanced platelet colony formation [3]: showed no effect on substance P activity
